{
  "source": "patent US20250325529A1",
  "about": "“INHIBITORS OF FATTY ACID BINDING PROTEINS (FABPs), METHODS OF USE AND METHODS OF MAKING” (Celloram, inc., priority 2024, published 2025)",
  "key": {"FABP7": {"target": "FABP7 (Homo sapiens (Human), UniProt O15540)", "sequence (O15540 whole entry, species assumed)": "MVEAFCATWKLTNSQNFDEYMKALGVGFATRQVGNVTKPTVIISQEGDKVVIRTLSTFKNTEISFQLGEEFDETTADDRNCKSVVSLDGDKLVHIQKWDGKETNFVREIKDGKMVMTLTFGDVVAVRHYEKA", "assay": "Fluorescence (ANS) competition binding assay, FABP7", "conditions": "ANS displacement", "how_it_was_run": "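His-tagged FABPs were expressed in E. coli. Kd for ANS was first determined by titrating 2 μM protein with ANS and following fluorescence increase. Compounds then displaced ANS from 1:1 protein:ANS complexes, and Kd was derived from the competition EC50 and the ANS Kd.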"}, "HepG2 cells": {"system": "HepG2 cells", "assay": "Lipid uptake assay (Nile Red), in vitro liver steatosis model", "type": "cell-based", "protocol": "HepG2 cells: 5000 cells were plated in 96-well plate. The next day cells were treated with tested compounds for 4 hours and then treated with 1 mM oleic acid for additional 24 hours. Cells were then stained with Nile Red and lipid content was measured using Spectra Max i3X plate reader (Molecular Devices) and quantified with the SoftMax Pro 6 software."}, "[1]": {"system": "Salmonella typhimurium tester strain TA1535", "assay": "Ames test (Bacterial Reverse Mutation Test), TA1535", "type": "cell-based", "protocol": "(§1) PD152 (compound 2) was tested for genotoxic and cytotoxic side effects by Ames test. The Ames test is a Bacterial Reverse Mutation Test of mutagenicity that utilizes Salmonella typhimurium tester strains TA98, TA100, TA1535, TA1537 and Escherichia coli tester strain WP2 uvrA (pKM101), both in the presence and absence of S9.\n(§2) The compound PD152 was tested at 10 concentrations (0.032-1000 μg/plate) in the presence of, or absence of, the hepatic enzyme S9.\nThe aniline FABP4/5 inhibitor compound, 2-((2-((2,4-dichloro-5-isopropoxyphenyl)amino)-2-oxoethyl)thio)-2-methylpropanoic acid (compound “B104” as disclosed in WO2023043803A1) also was tested for genotoxic and cytotoxic side effects by Ames test. B104 was tested using the Salmonella typhimurium tester stains TA98, TA100, TA1535, and TA1537, both in the presence and absence of the hepatic enzyme S9, at 5 concentrations (1.5-64 μg/plate)."}, "[2]": {"system": "Escherichia coli tester strain WP2 uvrA (pKM101)", "assay": "Ames test (Bacterial Reverse Mutation Test), E. coli", "type": "cell-based", "protocol": "as §1, §2"}, "[3]": {"conditions": "TA1535, absence of S9, 0.0312 μg/plate"}, "[4]": {"conditions": "TA1535, absence of S9, 0.1 μg/plate"}, "[5]": {"conditions": "TA1535, absence of S9, 0.316 μg/plate"}, "[6]": {"conditions": "TA1535, absence of S9, 1 μg/plate"}, "[7]": {"conditions": "TA1535, absence of S9, 3.16 μg/plate"}, "[8]": {"conditions": "TA1535, absence of S9, 10 μg/plate"}, "[9]": {"conditions": "TA1535, absence of S9, 31.6 μg/plate"}, "[10]": {"conditions": "TA1535, absence of S9, 100 μg/plate"}, "[11]": {"conditions": "TA1535, absence of S9, 316 μg/plate"}, "[12]": {"conditions": "TA1535, absence of S9, 1000 μg/plate"}, "[13]": {"conditions": "TA1535, presence of S9, 0.0312 μg/plate"}, "[14]": {"conditions": "TA1535, presence of S9, 0.1 μg/plate"}, "[15]": {"conditions": "TA1535, presence of S9, 0.316 μg/plate"}, "[16]": {"conditions": "TA1535, presence of S9, 1 μg/plate"}, "[17]": {"conditions": "TA1535, presence of S9, 3.16 μg/plate"}, "[18]": {"conditions": "TA1535, presence of S9, 10 μg/plate"}, "[19]": {"conditions": "TA1535, presence of S9, 31.6 μg/plate"}, "[20]": {"conditions": "TA1535, presence of S9, 100 μg/plate"}, "[21]": {"conditions": "TA1535, presence of S9, 316 μg/plate"}, "[22]": {"conditions": "TA1535, presence of S9, 1000 μg/plate"}, "[23]": {"conditions": "presence of S9, 0.0312 μg/plate"}},
  "data": [
    {"smiles": "CC(C)Oc1nc(NC(=O)CSCC(=O)O)c(Cl)cc1Cl", "note": "[PD152, 2-((2-((3,5-dichloro-6-isopropoxypyridin-2-yl)amino)-2-oxoethyl)thio)acetic acid]", "values": [
      {"measurement": "Kd", "setting": "FABP7", "value": 989, "unit": "nM"},
      {"measurement": "IC50", "setting": "HepG2 cells; Homo sapiens, compound 4 h then oleic acid 1 mM 24 h, Nile Red, read-out: IC50 for inhibition of lipid uptake", "value": 553, "unit": "nM"},
      {"measurement": "Treatment concentrations at which lipid uptake was markedly inhibited", "setting": "HepG2 cells; oleic acid 1 mM", "value": "> 0.2", "unit": "µM"},
      {"measurement": "Fold increase", "setting": "[1]; [3]", "value": 1},
      {"measurement": "Mean number of revertants", "setting": "[1]; [3]", "value": 3},
      {"measurement": "Fold increase", "setting": "[1]; [4]", "value": 1},
      {"measurement": "Mean number of revertants", "setting": "[1]; [4]", "value": 3},
      {"measurement": "Fold increase", "setting": "[1]; [5]", "value": 1},
      {"measurement": "Mean number of revertants", "setting": "[1]; [5]", "value": 3},
      {"measurement": "Fold increase", "setting": "[1]; [6]", "value": 1},
      {"measurement": "Mean number of revertants", "setting": "[1]; [6]", "value": 3},
      {"measurement": "Fold increase", "setting": "[1]; [7]", "value": 1},
      {"measurement": "Mean number of revertants", "setting": "[1]; [7]", "value": 3},
      {"measurement": "Fold increase", "setting": "[1]; [8]", "value": 1},
      {"measurement": "Mean number of revertants", "setting": "[1]; [8]", "value": 4},
      {"measurement": "Fold increase", "setting": "[1]; [9]", "value": 1},
      {"measurement": "Mean number of revertants", "setting": "[1]; [9]", "value": 4},
      {"measurement": "Fold increase", "setting": "[1]; [10]", "value": 1},
      {"measurement": "Mean number of revertants", "setting": "[1]; [10]", "value": 4},
      {"measurement": "Fold increase", "setting": "[1]; [11]", "value": 1},
      {"measurement": "Mean number of revertants", "setting": "[1]; [11]", "value": 3},
      {"measurement": "Fold increase", "setting": "[1]; [12]", "value": 1},
      {"measurement": "Mean number of revertants", "setting": "[1]; [12]", "value": 3},
      {"measurement": "Fold increase", "setting": "[1]; [13]", "value": 1},
      {"measurement": "Mean number of revertants", "setting": "[1]; [13]", "value": 3},
      {"measurement": "Fold increase", "setting": "[1]; [14]", "value": 1},
      {"measurement": "Mean number of revertants", "setting": "[1]; [14]", "value": 4},
      {"measurement": "Fold increase", "setting": "[1]; [15]", "value": 1},
      {"measurement": "Mean number of revertants", "setting": "[1]; [15]", "value": 3},
      {"measurement": "Fold increase", "setting": "[1]; [16]", "value": 1},
      {"measurement": "Mean number of revertants", "setting": "[1]; [16]", "value": 4},
      {"measurement": "Fold increase", "setting": "[1]; [17]", "value": 1},
      {"measurement": "Mean number of revertants", "setting": "[1]; [17]", "value": 4},
      {"measurement": "Fold increase", "setting": "[1]; [18]", "value": 1},
      {"measurement": "Mean number of revertants", "setting": "[1]; [18]", "value": 4},
      {"measurement": "Fold increase", "setting": "[1]; [19]", "value": 1},
      {"measurement": "Mean number of revertants", "setting": "[1]; [19]", "value": 4},
      {"measurement": "Fold increase", "setting": "[1]; [20]", "value": 1},
      {"measurement": "Mean number of revertants", "setting": "[1]; [20]", "value": 4},
      {"measurement": "Fold increase", "setting": "[1]; [21]", "value": 1},
      {"measurement": "Mean number of revertants", "setting": "[1]; [21]", "value": 4},
      {"measurement": "Fold increase", "setting": "[1]; [22]", "value": 1},
      {"measurement": "Mean number of revertants", "setting": "[1]; [22]", "value": 4},
      {"measurement": "Fold increase", "setting": "[2]; absence of S9, 0.0312 μg/plate", "value": 1},
      {"measurement": "Mean number of revertants", "setting": "[2]; absence of S9, 0.0312 μg/plate", "value": 41},
      {"measurement": "Fold increase", "setting": "[2]; absence of S9, 0.1 μg/plate", "value": 1},
      {"measurement": "Mean number of revertants", "setting": "[2]; absence of S9, 0.1 μg/plate", "value": 39},
      {"measurement": "Fold increase", "setting": "[2]; absence of S9, 0.316 μg/plate", "value": 1},
      {"measurement": "Mean number of revertants", "setting": "[2]; absence of S9, 0.316 μg/plate", "value": 41},
      {"measurement": "Fold increase", "setting": "[2]; absence of S9, 1 μg/plate", "value": 1},
      {"measurement": "Mean number of revertants", "setting": "[2]; absence of S9, 1 μg/plate", "value": 39},
      {"measurement": "Fold increase", "setting": "[2]; absence of S9, 3.16 μg/plate", "value": 1},
      {"measurement": "Mean number of revertants", "setting": "[2]; absence of S9, 3.16 μg/plate", "value": 42},
      {"measurement": "Fold increase", "setting": "[2]; absence of S9, 10 μg/plate", "value": 1},
      {"measurement": "Mean number of revertants", "setting": "[2]; absence of S9, 10 μg/plate", "value": 40},
      {"measurement": "Fold increase", "setting": "[2]; absence of S9, 31.6 μg/plate", "value": 1},
      {"measurement": "Mean number of revertants", "setting": "[2]; absence of S9, 31.6 μg/plate", "value": 42},
      {"measurement": "Fold increase", "setting": "[2]; absence of S9, 100 μg/plate", "value": 1},
      {"measurement": "Mean number of revertants", "setting": "[2]; absence of S9, 100 μg/plate", "value": 42},
      {"measurement": "Fold increase", "setting": "[2]; absence of S9, 316 μg/plate", "value": 1},
      {"measurement": "Mean number of revertants", "setting": "[2]; absence of S9, 316 μg/plate", "value": 40},
      {"measurement": "Fold increase", "setting": "[2]; absence of S9, 1000 μg/plate", "value": 1},
      {"measurement": "Mean number of revertants", "setting": "[2]; absence of S9, 1000 μg/plate", "value": 42},
      {"measurement": "Fold increase", "setting": "[2]; [23]", "value": 1},
      {"measurement": "Mean number of revertants", "setting": "[2]; [23]", "value": 39},
      {"measurement": "Fold increase", "setting": "[2]; presence of S9, 0.1 μg/plate", "value": 1},
      {"measurement": "Mean number of revertants", "setting": "[2]; presence of S9, 0.1 μg/plate", "value": 42},
      {"measurement": "Fold increase", "setting": "[2]; presence of S9, 0.316 μg/plate", "value": 1},
      {"measurement": "Mean number of revertants", "setting": "[2]; presence of S9, 0.316 μg/plate", "value": 40},
      {"measurement": "Fold increase", "setting": "[2]; presence of S9, 1 μg/plate", "value": 1},
      {"measurement": "Mean number of revertants", "setting": "[2]; presence of S9, 1 μg/plate", "value": 38},
      {"measurement": "Fold increase", "setting": "[2]; presence of S9, 3.16 μg/plate", "value": 1},
      {"measurement": "Mean number of revertants", "setting": "[2]; presence of S9, 3.16 μg/plate", "value": 38},
      {"measurement": "Fold increase", "setting": "[2]; presence of S9, 10 μg/plate", "value": 1},
      {"measurement": "Mean number of revertants", "setting": "[2]; presence of S9, 10 μg/plate", "value": 41},
      {"measurement": "Fold increase", "setting": "[2]; presence of S9, 31.6 μg/plate", "value": 1},
      {"measurement": "Mean number of revertants", "setting": "[2]; presence of S9, 31.6 μg/plate", "value": 41},
      {"measurement": "Fold increase", "setting": "[2]; presence of S9, 100 μg/plate", "value": 1},
      {"measurement": "Mean number of revertants", "setting": "[2]; presence of S9, 100 μg/plate", "value": 39},
      {"measurement": "Fold increase", "setting": "[2]; presence of S9, 316 μg/plate", "value": 1},
      {"measurement": "Mean number of revertants", "setting": "[2]; presence of S9, 316 μg/plate", "value": 40},
      {"measurement": "Fold increase", "setting": "[2]; presence of S9, 1000 μg/plate", "value": 1},
      {"measurement": "Mean number of revertants", "setting": "[2]; presence of S9, 1000 μg/plate", "value": 40}
    ]}
  ]
}
